Test results published in US20230390319A1, “INTERFERON GENE STIMULATOR COMPOSITION COMPRISING INDOLIZINE DERIVATIVE AS ACTIVE INGREDIENT” (AJOU UNIVERSITY INDUSTRY-ACADEMIC COOPERATION FOUNDATION, priority 2020, published 2023).
Entries after “also recorded” stand apart in the source; their conditions may differ.

Assays:
[1] = tested on: ISRE reporter signal; assay: ISRE luciferase reporter assay, THP-1 cells co-treated with compound and cGAMP; assay type: cell-based, Human
Method in brief: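 STING-competent THP-1 cells were co-treated with compound plus cGAMP (1 μg/ml) for 24 h. ISRE-driven luciferase in the culture supernatant was read by QUANTI-Luc luminescence. Signal was normalized to DMSO control and compared against cGAMP-alone treatment.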

[2] = tested on: THP-1 cells; assay: Cell viability assay (CellTiter Clo) in THP-1 cells; assay type: cell-based, Human
Method in brief: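 Wild-type or STING-knockout human monocytic THP-1 cells co-treated with compound plus cGAMP (1 μg/ml). Viability measured with CellTiter-Glo reagent on a plate reader and normalized to DMSO control.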

[3] = tested on: STING KO cell line; assay: ISRE reporter assay in THP-1 STING KO cell line; assay type: cell-based, Human; conditions: co-treatment with cGAMP, FIG. 1
Protocol: Human monocytic THP-1 wild-type (WT) and STING knockout (KO) cell lines were obtained from InvivoGen. Cells were cultured in 1×RPMI 1640 medium containing 10% fetal bovine serum (FBS, Hyclone), 2.05 mM L-glutamine (Hyclone) and 1% penicillin (Corning) in a humidified incubator at 37° C. under 5% CO2.
To confirm immune responses, THP-1 cells were placed in 384-well plates (Grenier), and treated with each compound and cGAMP (1 μg/ml), and after 24 hours, ISRE activity was analyzed. QUANTI-Luc assay (InvivoGen) was performed using the cell culture supernatant to confirm the luciferase reporter gene signal. Fluorescent signals were measured using a TECAN micro plate reader SPARK, and the results were normalized to DMSO control.

[4] = tested on: human IFN-β and IP-10; assay: ELISA of cytokine levels in THP-1 cell supernatants; assay type: cell-based; conditions: FIG. 3
Protocol: Cytokine levels were determined by ELISA analysis. THP-1 cells were placed in a 96-well U bottom plate and tested after 24 hours of treatment with each compound and cGAMP (1 μg/ml). After culturing, cell supernatants were collected and human IFN-β and IP-10 levels were determined by ELISA analysis.

[5] = tested on: IRF3, STAT1; assay: Western blot analysis of TBK, IRF3 and STAT1 activity; assay type: cell-based; conditions: induced by cGAMP, FIG. 5
Protocol: Cells were cultured and lysed in RIPA buffer containing a protease and phosphatase inhibitor cocktail (Thermo Fisher Scientific) and benzonase nuclease (Sigma). After centrifugation, the supernatant was collected, and the amount of protein was measured using a BCA protein assay kit (Thermo Fisher Scientific). Cell lysates were analyzed by SDS-PAGE using an acrylamide gel. After SDS-PAGE, proteins were transferred to a PVDF membrane, blocked with 5% BSA, and then washed with TBST. The membrane was incubated with primary antibodies (anti-STING, anti-pSTING, anti-TBK, anti-pTBK, anti-IRF3, anti-pIRF3, anti-STAT1, anti-pSTAT1, and anti-actin) overnight at 4° C. After washing with TBST, the membrane was treated with HRP-conjugated secondary antibodies at room temperature for 1 hour. The membrane was washed with TBST and treated with ECL solution (Thermo Fisher Scientific). Chemical fluorescence images were taken with ChemiDOC (Bio-Rad).

[6] = tested on: STING; assay: Activity comparison with STING pathway-activating therapeutic agent MV658; assay type: cell-based; conditions: compared with ENPP inhibitor MV658, FIG. 6
[7] = tested on: 4T1 tumor cells; assay: In vivo anticancer activity, 4T1 tumor in BALB/c mice; conditions: Compound 42 20 mg/kg intravenous once daily + cGAMP 2 μg intratumoral every 4 days, compared to cGAMP alone, FIG. 7
Protocol: Eight-week-old female BALB/c mice (DBL) were used for experiments and inoculated subcutaneously with 0.5×10^6 4T1 tumor cells using PBS as the vehicle on the right flank. Following tumor implantation, mice were randomized into treatment groups, each consisting of N=4 (vehicle N=1). On day 5 after tumor cell injection, when the tumor volume reached about 100 mm^3, Compound 42 or vehicle was administrated by intravenous injection (20 mg/kg) or vehicle (5% DMSO, 5% Tween 80 in PBS). 2′3′-cGAMP (InvivoGen) was injected by intratumoral injection (2 μg in PBS). Compound 42 was injected once daily, and cGAMP was injected once every 4 days. Tumor and body weight measurements were performed using digital calipers and a weigh scale, respectively. Tumor volume was estimated using the following Equation 1:
Tumor volume=(length×width^2)/2 [Equation 1]
Mice were euthanized when the tumor volume reached about 2,000 mm^3.

CC(=O)c1ccc(-c2cc(C(=O)c3ccc(C(F)(F)F)cc3)n3ccccc23)cc1 [Compound 42]
ISRE reporter effect in WT cell line ([1]; THP-1 WT, co-treatment with cGAMP, FIG. 1): increased effect | Normalized RU (relative unit of ISRE reporter signal) ([1]; THP-1 cells, 20 μM of each compound, co-treated with cGAMP (1 μg/ml), 24 hours): 9.32 | efficacy in ISRE reporter assay ([1]; co-administered with cGAMP, among 86 indolizine derivatives): highest efficacy | Normalized cell viability ([2]; THP-1 cells, 20 μM of each compound, co-treated with cGAMP (1 μg/ml)): 1.20 | cytotoxicity of co-treatment ([2]; co-treatment with cGAMP): no cytotoxicity; also recorded: did not cause toxicity | ISRE reporter effect in STING KO cell line [3]: no effect | cytokine secretion (IFN-β, IP-10) ([4]; co-treatment with cGAMP compared to cGAMP alone, concentration-dependent): increased cytokine secretion very effectively | immune response, compound alone ([4]; treatment with Compound 42 alone): induced no immune response | phosphorylation of IRF3 and STAT1 [5]: increased phosphorylation of IRF3 and phosphorylation of STAT1 | degree of STING-dependent immune response activation [6]: better activity | tumor volume [7]: effectively reduced the tumor volume
